Read-outs that look alike come from different tables or passages of the source.
Assays:
mPAD4 = mPAD4 (Mus musculus (Mouse), UniProt Q9Z183); assay: PAD4 RapidFire Mass Spectrometry (RFMS) activity assay, mPAD4; assay type: biochemical
hPAD4 enzyme = hPAD4 enzyme (Homo sapiens (Human), UniProt Q9UM07); assay: PAD4 RapidFire Mass Spectrometry (RFMS) activity assay, hPAD4; assay type: biochemical
[1] = pIC50=−log(IC50), read-out: mPAD4 RFMS pIC50 (converted)
[2] = 100 nM hPAD4, 50 μM substrate peptide, 1 mM CaCl2, 65 mins at 37° C., read-out: hPAD4 RFMS IC50
[3] = pIC50=−log(IC50), read-out: hPAD4 RFMS pIC50 (converted)

Chain of mPAD4 (Q9Z183 whole entry): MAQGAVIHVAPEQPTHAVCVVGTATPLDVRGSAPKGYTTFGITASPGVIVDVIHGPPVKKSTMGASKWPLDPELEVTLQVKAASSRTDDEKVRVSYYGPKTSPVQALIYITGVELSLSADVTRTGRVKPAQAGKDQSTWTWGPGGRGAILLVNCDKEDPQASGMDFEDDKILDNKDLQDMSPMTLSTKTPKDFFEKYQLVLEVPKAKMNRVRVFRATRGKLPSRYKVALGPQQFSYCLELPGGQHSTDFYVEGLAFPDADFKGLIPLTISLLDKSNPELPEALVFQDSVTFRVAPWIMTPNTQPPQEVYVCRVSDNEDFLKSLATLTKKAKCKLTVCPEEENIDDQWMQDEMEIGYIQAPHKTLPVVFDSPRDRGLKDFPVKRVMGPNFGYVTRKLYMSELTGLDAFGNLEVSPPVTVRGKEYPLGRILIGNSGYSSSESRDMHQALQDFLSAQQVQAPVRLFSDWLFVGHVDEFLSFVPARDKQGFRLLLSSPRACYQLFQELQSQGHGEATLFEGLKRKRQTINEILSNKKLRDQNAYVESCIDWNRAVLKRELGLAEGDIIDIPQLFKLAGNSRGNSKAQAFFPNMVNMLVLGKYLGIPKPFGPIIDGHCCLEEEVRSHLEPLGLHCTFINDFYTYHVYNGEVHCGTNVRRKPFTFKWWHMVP
Chain of hPAD4 enzyme (Q9UM07 whole entry): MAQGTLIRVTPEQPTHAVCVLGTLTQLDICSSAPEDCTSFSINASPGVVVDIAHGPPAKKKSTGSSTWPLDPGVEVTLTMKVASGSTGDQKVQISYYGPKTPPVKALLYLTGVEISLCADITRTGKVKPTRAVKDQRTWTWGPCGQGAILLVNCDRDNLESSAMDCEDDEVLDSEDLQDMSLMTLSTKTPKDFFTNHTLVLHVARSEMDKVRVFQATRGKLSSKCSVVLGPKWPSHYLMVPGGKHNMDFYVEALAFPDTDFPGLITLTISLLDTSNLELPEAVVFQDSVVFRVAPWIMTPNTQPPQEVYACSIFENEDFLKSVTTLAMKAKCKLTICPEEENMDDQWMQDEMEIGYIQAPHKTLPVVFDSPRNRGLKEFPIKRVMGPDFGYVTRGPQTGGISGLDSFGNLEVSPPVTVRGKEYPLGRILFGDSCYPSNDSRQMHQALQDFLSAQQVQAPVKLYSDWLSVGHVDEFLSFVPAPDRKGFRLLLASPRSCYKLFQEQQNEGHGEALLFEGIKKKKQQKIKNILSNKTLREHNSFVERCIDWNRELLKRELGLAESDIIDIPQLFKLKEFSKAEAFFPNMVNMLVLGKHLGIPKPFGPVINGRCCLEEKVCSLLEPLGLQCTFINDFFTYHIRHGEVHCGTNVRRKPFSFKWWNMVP

| SMILES | IC50 (mPAD4; [1]) [µM] | IC50 (mPAD4; read-out: mPAD4 RFMS IC50) [µM] | IC50 (hPAD4 enzyme; [2]) [µM] | IC50 (hPAD4 enzyme; [3]) [µM] |
| --- | --- | --- | --- | --- |
| CN(C)C/C=C/C(=O)N[C@H]1CCN(C(=O)c2ccc3c(c2)nc(-c2cc4cccnc4n2CC2CC2)n3C)C[C@H]1N (racemic) [Compound I-3, Cis-rac-(2E)-N-[(3R,4S)-3-amino-1-{2-[1-(cyclopropylmethyl)-1H-pyrrolo[2,3-b]pyridin-2-yl]-1-methyl-1H-1,3-benzodiazole-5-carbonyl}piperidin-4-yl]-4-(dimethylamino)but-2-enamide] | 10 to 100 | > 10 | > 10 | 100 to 100000 |
| CN(C)C/C=C/C(=O)N[C@@H]1C[C@H](N)CN(C(=O)c2ccc3c(c2)nc(-c2cc4cccnc4n2CC2CC2)n3C)C1 (racemic) [Compound I-10, Cis-rac-(2E)-N-[(3R,5S)-5-amino-1-{2-[1-(cyclopropylmethyl)-1H-pyrrolo[2,3-b]pyridin-2-yl]-1-methyl-1H-1,3-benzodiazole-5-carbonyl}piperidin-3-yl]-4-(dimethylamino)but-2-enamide] | 10 to 100 | > 10 | > 10 | 10 to 100 |
| C=CC(=O)O[C@@H]1CNC[C@@H]1NC(=O)c1ccc2c(c1)nc(-c1cc3cccnc3n1CC1CC1)n2C (racemic) [Compound I-11, Rac-(3R,4S)-4-{2-[1-(cyclopropylmethyl)-1H-pyrrolo[2,3-b]pyridin-2-yl]-1-methyl-1H-1,3-benzodiazole-5-amido}pyrrolidin-3-yl prop-2-enoate] |  |  | > 10 | 10 to 100 |
| C=CC(=O)N(C)[C@@H]1C[C@@H]2CN(C(=O)c3cc(OC)c4c(c3)nc(-c3cc5cccnc5n3CC3CC3)n4C)[C@H]1[C@@H]2N (single isomer, unassigned) [Compound I-16] |  |  | > 10 | 100 to 100000 |
| C=CC(=O)N(C)[C@H]1C[C@@H]2CN(C(=O)c3cc(OC)c4c(c3)nc(-c3cc5cccnc5n3CC3CC3)n4C)[C@H]1[C@@H]2N (single isomer, unassigned) [Compound I-17] |  |  | > 10 | 100 to 100000 |
| C/C=C/C(=O)N[C@@H]1CNC[C@H]1NC(=O)c1ccc2c(c1)nc(-c1cc3cccnc3n1CC1CC1)n2C [Compound I-6] |  |  | > 10 | 100 to 100000 |
| CN(C)C/C=C/C(=O)NCCN(CCc1cnc[nH]1)C(=O)c1ccc2c(c1)nc(-c1cc3cccnc3n1CC1CC1)n2C [Compound I-7, (2E)-N-[2-(1-{2-[1-(Cyclopropylmethyl)-1H-pyrrolo[2,3-b]pyridin-2-yl]-1-methyl-1H-1,3-benzodiazol-5-yl}-N-[2-(1H-imidazol-5-yl)ethyl]formamido)ethyl]-4-(dimethylamino)but-2-enamide] |  |  | > 10 | 100 to 100000 |
| CN(C)C/C=C/C(=O)N[C@@H]1CCCN(C(=O)c2ccc3c(c2)nc(-c2cc4cccnc4n2CC2CC2)n3C)C1 [Compound I-12, (2E)-N-[(3R)-1-{2-[1-(cyclopropylmethyl)-1H-pyrrolo[2,3-b]pyridin-2-yl]-1-methyl-1H-1,3-benzodiazole-5-carbonyl}piperidin-3-yl]-4-(dimethylamino)but-2-enamide] |  |  | > 10 | 10 to 100 |
| C=CC(=O)N[C@@H]1CCCN(C(=O)c2ccc3c(c2)nc(-c2cc4cccnc4n2CC2CC2)n3C)C1 [Compound I-13, N-[(3R)-1-{2-[1-(cyclopropylmethyl)-1H-pyrrolo[2,3-b]pyridin-2-yl]-1-methyl-1H-1,3-benzodiazole-5-carbonyl}piperidin-3-yl]prop-2-enamide] |  |  | > 10 | 100 to 100000 |
